# Assays:
# [1] = system: sebaceous glands of the skin of healthy volunteers; assay: Evaluation of the production of sebum (Sebutape patches, number of spots by image analysis), randomized double-blind clinical study; assay type: in vivo, human; conditions: for variation in seborrhea vs placebo (Wilcoxon test): 12 months oral 50 mg daily; for Number of spots: 50 mg daily oral
# Experimental: (§1) The evaluation was carried out using a randomized double-blind clinical study among 280 individuals (140 men and 140 women). The inclusion criteria was as follows: healthy volunteers, of both sexes, free of any severe pathological condition and 60 to 80 years old.
# (§2) The treatment consisted, for 12 months, of a daily dose of 50 mg of DHEA, taken in the morning, in the form of a breakable tablet, for half of the individuals, or of a placebo for the other half of the individuals.
# The production of sebum is measured at the start of treatment (T0) and at the end of treatment (T12) according to the techniques described by A. M. Kligman et al., J. Soc. Cosmet. Chem. (1986), 37, 369-373 and by K. M. Nordstrom et al., J. Invest. Dermatol. (1986), 87, 260-264.
# White adhesive microporous patches (Sebutape®, Cuderm Corporation, Dallas, Tex., USA) described in U.S. Pat. No. 4,532,937 are used; the patches are applied in a standardized manner to the skin, which has been wiped 10 times, beforehand, with cotton soaked in 70° alcohol in order to remove any fat. The lipids which are passively absorbed onto the patches are visualized by the presence of transparent spots, themselves measured by image analysis.
# Each spot represents an active sebaceous gland.
# (§3) The statistical analysis is performed using the Wilcoxon test.
# [2] = system: skin on the ventral side of the forearm of healthy volunteers; assay: Evaluation of the moisturization of the skin by electrical conductance (Dermodiag), randomized double-blind clinical study; assay type: in vivo, human; conditions: for moisturization of the skin vs placebo (Wilcoxon test): 12 months oral 50 mg daily; for Conductance: 50 mg daily oral
# Experimental: as §1, §2
# The moisturization of the skin on the ventral side of the forearm is measured, blind, at the start of treatment (T0) and at the end of treatment (T12), by the same clinician, using a Dermodiag®, which is a device described in patent U.S. Pat. No. 5,001,436. The characteristics of the device are as follows: outlet impedance: 1.4 kOhms and working frequency 10 MHz. The method used is that described by J. L. Lévêque, Soc. Cosmet. Chem. (1983), 34, 419-428.
# This device makes it possible to evaluate the state of moisturization (water content of the superficial layers of the epidermis) by measuring electrical conductance. The conductance is measured using an electrode applied to the skin for 10 seconds. The conductance value is the result of the mean of 6 individual measurements per measurement time.
# as §3
# [3] = men, T0 (start of treatment), DHEA group
# [4] = men, T12 (end of 12 months treatment)
# [5] = women, T0 (start of treatment), DHEA group
# [6] = women, T12 (end of 12 months treatment)
smiles,measurement,setting,value
"C[C@]12CC[C@H](O)CC1=CC[C@@H]1[C@@H]2CC[C@]2(C)C(=O)CC[C@@H]12 [DHEA, Dehydroepiandrosterone]",variation in seborrhea vs placebo (Wilcoxon test),"[1]; men, p=0.46",no significant variation in seborrhea
same,Number of spots,[1]; [3],55
same,Number of spots,[1]; [4],140
same,variation in seborrhea vs placebo (Wilcoxon test),"[1]; women, p=0.0001",significant variation in seborrhea
same,Number of spots,[1]; [5],2
same,Number of spots,[1]; [6],56
same,moisturization of the skin vs placebo (Wilcoxon test),"[2]; men, p=0.03",significant improvement
same,Conductance,[2]; [3],69
same,Conductance,[2]; [4],86
same,"improvement of the moisturization of the skin, measured by conductance","[2]; men, treated group, T12 vs T0, 50 mg daily oral (placebo +21%, p=0.03)",26%
same,moisturization of the skin vs placebo (Wilcoxon test),"[2]; women, p=0.44",without significant variation in the moisturization of the skin
same,Conductance,[2]; [5],64
same,Conductance,[2]; [6],84

# From US20030050293A1, “Use of dehydroepiandrosterone, its precursors and derivatives, by oral administration, as hydrating agents with direct action” (priority 2000, published 2003)
